Data as given in the OPERA property sets (Mansouri et al. 2018).

Conditions: not given

| SMILES | melting point [°C] | log10 Koc (L/kg) | boiling point [°C] | log10 Henry constant (atm·m³/mol) | ready biodegradability | log10 vapour pressure (mmHg) | log10 biodegradation half-life (days) |
| --- | --- | --- | --- | --- | --- | --- | --- |
| O=C(O)C=Cc1cccc(Br)c1 | 178 | – | – | – | – | – | – |
| S=C(c1ccccc1)c1ccccc1 | 53.5 | – | – | – | – | – | – |
| O=C1CCCc2ccccc21 | 8 | – | – | – | – | – | – |
| O=C(O)[C@@H]1CCc2ccccc2C1 | 97.7 | – | – | – | – | – | – |
| CCCC(O)C(=O)O (stereo not given) | 34 | – | – | – | – | – | – |
| CN(C)CCN(Cc1cccs1)c1ccccn1 | – | 2.87 | – | – | – | – | – |
| C=CC(=C)F | – | – | 12 | – | – | – | – |
| C=O | – | – | -19.1 | -6.47 | readily biodegradable | – | – |
| CCC#CCCCCC | – | – | 157 | – | – | – | – |
| O=C([O-])Cc1ccccc1Nc1c(Cl)cccc1Cl.[Na+] | 284 | – | – | – | – | – | – |
| CCN(CCO)c1ccccc1 | 37 | – | 268 | – | – | – | – |
| C1CN2CCN1CC2 | 159 | – | 174 | – | not readily biodegradable | -0.13 | – |
| Nc1ccc(C2CCCCC2)cc1 | 54.5 | – | – | – | – | – | – |
| NC(=O)c1ccc(N)cc1 | 182 | – | – | – | – | – | – |
| CCC(C)C(C)C (stereo not given) | – | – | 89.7 | – | – | 1.84 | 0.845 |
| O=C(O)c1ccncc1 | 315 | – | – | – | – | – | – |
| COc1c(O)c(Cl)c(Cl)c(Cl)c1Cl | – | 2.85 | – | – | – | -4.08 | – |
| CCC(C)(O)C#CC(C)(O)CC (stereo not given) | – | – | 135 | – | – | – | – |
| CCCCc1ccccc1 | -87.9 | 3.39 | 183 | – | not readily biodegradable | 0.027 | – |
| FC(F)(F)C(F)(F)C(F)(F)C(F)(F)C(F)(F)C(F)(F)OC(F)(F)C(F)(F)C(F)(F)C(F)(F)C(F)(F)C(F)(F)F | -90 | – | 181 | – | – | – | – |
| Clc1cc(Cl)c2ccccc2c1 | 62.3 | – | 291 | – | – | – | – |
| CCCCCI | -85.6 | – | 155 | -1.71 | – | 0.642 | – |
| OC(COc1ccccc1)COc1ccccc1 | 81.5 | – | – | – | – | – | – |
| COC(=O)CSc1cc(/N=c2\sc(=O)n3n2CCCC3)c(F)cc1Cl | 106 | – | – | – | – | -8.48 | – |
| Brc1ccc2c(c1)Oc1ccccc1O2 | 90 | – | – | – | – | -4.52 | – |
| c1ccc(-c2nc(-c3ccccc3)c(-c3ccccc3)[nH]2)cc1 | 275 | – | – | – | – | – | – |
| CNC(=O)CSP(=S)(OC)OC | 52 | 1.2 | – | – | not readily biodegradable | -4.73 | – |

| SMILES | melting point [°C] | log10 Koc (L/kg) | boiling point [°C] | log10 Henry constant (atm·m³/mol) | ready biodegradability | log10 vapour pressure (mmHg) | log10 biodegradation half-life (days) |
| --- | --- | --- | --- | --- | --- | --- | --- |
| COC(OC)OC | – | – | 104 | – | – | – | – |
| c1ccc(-c2noc(-c3ccccc3)n2)cc1 | 109 | – | 290 | – | – | – | – |
| COCCl | -104 | – | 59.5 | – | readily biodegradable | 1.48 | – |
| CCCB(O)O | 107 | – | – | – | – | – | – |
| CN1CSC(=S)N(C)C1 | 106 | 1 | – | -9.58 | not readily biodegradable | -5.55 | – |
| Brc1ccc(-c2ccccc2)cc1 | 91.5 | – | 310 | – | readily biodegradable | -2.63 | – |
| Oc1c(Cl)ccc(Cl)c1Cl | 58 | – | – | – | – | – | – |
| CC(C)C(=O)c1ccccc1 | -1.3 | – | 220 | – | – | – | – |
| C[Si](F)(F)c1ccccc1 | – | – | – | – | – | 0.881 | – |
| CCCOC(=O)NCCCN(C)C | – | 2.49 | – | -8.83 | – | -1.26 | – |
| CCC(C)C(C)O (stereo not given) | – | – | 134 | – | – | – | – |
| Cc1ccccc1F | -62 | – | 115 | – | – | 1.39 | – |
| CCCCCCC=NO | 57.5 | – | 195 | – | – | – | – |
| CCCCN(CCCC)c1ccccc1 | -32.2 | – | 275 | – | – | – | – |
| Cc1cccc(Cl)c1 | -47.8 | – | 162 | – | – | 0.565 | – |
| COc1ccc2ccc(=O)oc2c1CC=C(C)C | 83.5 | – | – | – | – | – | – |
| CN/C(=N\C#N)NCCSCc1nc[nH]c1C | 142 | – | – | – | – | – | – |
| Cc1ccc2nc(C)[nH]c2c1 | 203 | – | 350 | – | – | – | – |
| C/C=C/C(=O)OC | -42 | – | 120 | – | – | – | – |
| CCN(O)CC | 10 | – | 133 | – | not readily biodegradable | 0.526 | – |
| C=C(C)C(C)CCC (stereo not given) | – | – | 110 | – | – | – | – |
| CCOc1ccc(F)cc1 | -8.5 | – | 173 | – | – | – | – |
| CC1(C)CCCC(C)(C)N1 | – | – | 156 | – | – | – | – |
| CCCCOC(=O)c1ccc([N+](=O)[O-])cc1 | 35.5 | – | – | – | – | – | – |
| O=C(O)CCCCCCCCCF | 49 | – | – | – | – | – | – |
| O=Cc1ccc(O)c([N+](=O)[O-])c1 | 141 | – | – | – | – | -3.05 | – |

Same assay, conditions: fish

| SMILES | log10 BCF | log10 biotransformation half-life (days) |
| --- | --- | --- |
| O=S(=O)([O][Na])c1ccc2cc(O)c(S(=O)(=O)[O][Na])cc2c1 | 0.3 | – |
| Oc1cc(Cl)c(Cl)cc1Cl | 2.73 | – |
| C=C1C2CCC(C2)C1(C)C (stereo not given) | 2.98 | 0.96 |
| CC(CCl)OC(C)CCl (stereo not given) | 1.08 | -1.07 |
| N#Cc1ccc(C#N)cc1 | 0.3 | -0.81 |
| O=[N+]([O-])c1ccc(O)c([N+](=O)[O-])c1 | 0.57 | – |
| COc1c(O)c(Cl)c(Cl)c(Cl)c1Cl | 3.08 | – |
| CNC(=O)CSP(=S)(OC)OC | 0.2 | -1.01 |
